In patent US7317115B2, “Mandelates salts of substituted tetracyclic tetrahydrofuran derivatives” (Janssen Pharmaceutica, N.V., priority 2001, dated 2008):
“Also recorded” adds a separate entry of the source.

Key:
Assay type in all cases: physicochemical
[1] = Adsorption and desorption of water; details: 25° C., different relative humidity
Description: The adsorption and desorption of water at 25° C. at different conditions of relative humidity is investigated on an amount of ±10 mg of each salt. The weight change as a function of relative humidity is registered.

[2] = Chemical stability (HPLC and visual inspection after storage); details: for HPLC Sum of impurities: in % (unit assumed); for chemical stability: storage 2, 4 and 8 weeks under different conditions
Description: In the chemical stability test program the salts are stored for periods of 2, 4 and 8 weeks under different conditions. These conditions are 40° C./75% RH, 50° C., daylight, RT/5% RH, RT/75% RH, 25° C./60% RH and artificial light. The mandelate salt and the ditoluoyltartrate salt are also stored 8 hours in 0.3 da ICH light. The compounds are analyzed after storage by HPLC and by visual inspection.

[3] = Crystallographic stability (TGA, DSC, IR after storage); details: for crystallographic stability: storage two weeks under different relative humidities; as to IR: key: ~Ref: identical with reference
Description: The stability of the crystal structure of the salt is studied after storage of the compounds for a period of two weeks at room temperature (RT) under either 5%, 75% and 25° C./60% relative humidity (RH). The samples are analyzed with thermogravimetry (TGA), differential scanning calorimetry (DSC) and infrared spectroscopy (IR).

[4] = 0.3 da ICH light (2 weeks column; text: 8 hours)
[5] = listed as (+)ditoluoyltartrate salt

In the case of `CNCC1CC2c3ccccc3Cc3ccc(F)cc3C2O1.O=C(O)CCC(=O)O` (single isomer, unassigned) [succinate salt, B-(2α,3aα,12bβ)-11-fluoro-3,3a,8,12b-tetrahydro-N-methyl-2H-dibenzo-[3,4:6,7]cyclohepta[1,2-b]furan-2 methanamine], the “water adsorption/desorption behaviour (weight change as a function of relative humidity)” value [1] is reported as “less stable but the weight change as a function of the relative humidity is very small”.
With `CNCC1CC2c3ccccc3Cc3ccc(F)cc3C2O1.O=C(O)C(O)c1ccccc1` (single isomer, unassigned) [Compound 1, B-(2α,3aα,12bβ)-11-fluoro-3,3a,8,12b-tetrahydro-N-methyl-2H-dibenzo-[3,4:6,7]cyclohepta[1,2-b]furan-2 methanamine] the Appearance [2, 4] was “white”, the “HPLC Sum of impurities” value [2, 4] was 1.70 and the Appearance ([2]; 25° C./60% RH, 4 weeks) was “white”. The “HPLC Sum of impurities” value ([2]; 25° C./60% RH, 4 weeks) was 1.71, the Appearance ([2]; 25° C./60% RH, 8 weeks) was “white” and the “HPLC Sum of impurities” value ([2]; 25° C./60% RH, 8 weeks) was 1.69. For the same compound, the Appearance ([2]; 40° C./75% RH, 2 weeks) was “white”, the “HPLC Sum of impurities” value ([2]; 40° C./75% RH, 2 weeks) was 1.73 and the Appearance ([2]; 40° C./75% RH, 4 weeks) was “white”. The “HPLC Sum of impurities” value ([2]; 40° C./75% RH, 4 weeks) was 1.73, the Appearance ([2]; 40° C./75% RH, 8 weeks) was “white” and the “HPLC Sum of impurities” value ([2]; 40° C./75% RH, 8 weeks) was 1.70. The Appearance ([2]; 50° C., 2 weeks) was “white”, the “HPLC Sum of impurities” value ([2]; 50° C., 2 weeks) was 1.74 and the Appearance ([2]; 50° C., 4 weeks) was “white”. The “HPLC Sum of impurities” value ([2]; 50° C., 4 weeks) was 1.75, the Appearance ([2]; 50° C., 8 weeks) was “white” and the “HPLC Sum of impurities” value ([2]; 50° C., 8 weeks) was 1.70. For the same compound, the Appearance ([2]; Artificial light (2 weeks)) was “white”, the “HPLC Sum of impurities” value ([2]; Artificial light (2 weeks)) was 1.70 and the Appearance ([2]; Daylight, 2 weeks) was “white”. The “HPLC Sum of impurities” value ([2]; Daylight, 2 weeks) was 1.73, the Appearance ([2]; Daylight, 4 weeks) was “white” and the “HPLC Sum of impurities” value ([2]; Daylight, 4 weeks) was 1.71. For the same compound, the Appearance ([2]; Daylight, 8 weeks) was “white”, the “HPLC Sum of impurities” value ([2]; Daylight, 8 weeks) was 1.72 and the Appearance ([2]; RT/75% RH, 4 weeks) was “white”. For the same compound, the “HPLC Sum of impurities” value ([2]; RT/75% RH, 4 weeks) was 1.75, the Appearance ([2]; RT/75% RH, 8 weeks) was “white” and the “HPLC Sum of impurities” value ([2]; RT/75% RH, 8 weeks) was 1.76. The Appearance ([2]; RT/<5% RH, 4 weeks) was “white”, the “HPLC Sum of impurities” value ([2]; RT/<5% RH, 4 weeks) was 1.73 and the Appearance ([2]; RT/<5% RH, 8 weeks) was “white”. The “HPLC Sum of impurities” value ([2]; RT/<5% RH, 8 weeks) was 1.72, the Appearance ([2]; Reference (2 weeks)) was “white” and the “HPLC Sum of impurities” value ([2]; Reference (2 weeks)) was 1.72. The chemical stability ([2]; listed as mandelate salt) was “chemically stable in all investigated conditions; also recorded: crystallographically and chemically stable”, the “water adsorption/desorption behaviour (weight change as a function of relative humidity)” value ([1]; listed as mandelate salt) was “stable towards moisture uptake over the whole range of humidity; also recorded: good adsorption/desorption profile” and the Appearance ([3]; 0 days) was “white”. The “DSC Max” value ([3]; 0 days) was 229.5 °C, the “DSC ΔH” value ([3]; 0 days) was 141.1 J/g and the TGA <100° C. ([3]; 0 days) was 0.1%. For the same compound, the crystallographic stability ([3]; listed as mandelate salt) was “crystallographically and chemically stable”, the crystallographic stability ([3]; listed as mandelic acid salt) was “crystallographic stable” and the Appearance ([3]; two weeks, 25° C./60% RH) was “white”. For the same compound, the “DSC Max” value ([3]; two weeks, 25° C./60% RH) was 229.1 °C, the “DSC ΔH” value ([3]; two weeks, 25° C./60% RH) was 139.0 J/g and the IR ([3]; two weeks, 25° C./60% RH) was “~Ref”. For the same compound, the TGA <100° C. ([3]; two weeks, 25° C./60% RH) was 0.1%, the Appearance ([3]; two weeks, RT/75% RH) was “white” and the “DSC Max” value ([3]; two weeks, RT/75% RH) was 229.4 °C. For the same compound, the “DSC ΔH” value ([3]; two weeks, RT/75% RH) was 137.6 J/g, the IR ([3]; two weeks, RT/75% RH) was “~Ref” and the TGA <100° C. ([3]; two weeks, RT/75% RH) was 0.1%. For the same compound, the Appearance ([3]; two weeks, RT/<5% RH) was “white”, the “DSC Max” value ([3]; two weeks, RT/<5% RH) was 229.1 °C and the “DSC ΔH” value ([3]; two weeks, RT/<5% RH) was 140.2 J/g. For the same compound, the IR ([3]; two weeks, RT/<5% RH) was “~Ref” and the TGA <100° C. ([3]; two weeks, RT/<5% RH) was 0.1%.
In the case of “B-(2α,3aα,12bβ)-11-fluoro-3,3a,8,12b-tetrahydro-N-methyl-2H-dibenzo-[3,4:6,7]cyclohepta[1,2-b]furan-2 methanamine [Citrate]”, the Appearance ([2]; 40° C./75% RH, 2 weeks) is reported as “liquefied”, the “HPLC Sum of impurities” value ([2]; 40° C./75% RH, 2 weeks) is reported as 4.83 and the Appearance ([2]; 40° C./75% RH, 4 weeks) is reported as “liquefied”. For the same compound, the “HPLC Sum of impurities” value ([2]; 40° C./75% RH, 4 weeks) was 7.91, the Appearance ([2]; 40° C./75% RH, 8 weeks) was “liquefied” and the “HPLC Sum of impurities” value ([2]; 40° C./75% RH, 8 weeks) was 10.62. For the same compound, the Appearance ([2]; 50° C., 2 weeks) was “ochre-”, the “HPLC Sum of impurities” value ([2]; 50° C., 2 weeks) was 6.29 and the Appearance ([2]; 50° C., 4 weeks) was “ochre-”. The “HPLC Sum of impurities” value ([2]; 50° C., 4 weeks) was 7.47, the Appearance ([2]; 50° C., 8 weeks) was “orange-” and the “HPLC Sum of impurities” value ([2]; 50° C., 8 weeks) was 9.07. The Appearance ([2]; Artificial light (2 weeks)) was “ochre-”, the “HPLC Sum of impurities” value ([2]; Artificial light (2 weeks)) was 8.99 and the Appearance ([2]; Daylight, 2 weeks) was “ochre-”. The “HPLC Sum of impurities” value ([2]; Daylight, 2 weeks) was 5.81, the Appearance ([2]; Daylight, 4 weeks) was “ochre-” and the “HPLC Sum of impurities” value ([2]; Daylight, 4 weeks) was 5.99. The Appearance ([2]; Daylight, 8 weeks) was “orange-”, the “HPLC Sum of impurities” value ([2]; Daylight, 8 weeks) was 6.31 and the Appearance ([2]; RT/75% RH, 4 weeks) was “liquefied”. The “HPLC Sum of impurities” value ([2]; RT/75% RH, 4 weeks) was 4.69, the Appearance ([2]; RT/75% RH, 8 weeks) was “liquefied” and the “HPLC Sum of impurities” value ([2]; RT/75% RH, 8 weeks) was 4.98. For the same compound, the Appearance ([2]; Reference (2 weeks)) was “yellow”, the “HPLC Sum of impurities” value ([2]; Reference (2 weeks)) was 4.76 and the chemical stability ([2]; listed as citrate salt) was “shows degradation in all investigated conditions; also recorded: chemically not stable”. For the same compound, the “water adsorption/desorption behaviour (weight change as a function of relative humidity)” value ([1]; listed as citrate salt) was “hygroscopic and liquefies at high relative humidity”, the Appearance ([3]; 0 days) was “yellowish” and the “DSC Max” value ([3]; 0 days) was “amorphous”. The crystallographic stability ([3]; listed as citrate salt) was “amorphous and liquefies at RT/75% RH” and the Appearance ([3]; two weeks, RT/75% RH) was “liquefied”.
For “B-(2α,3aα,12bβ)-11-fluoro-3,3a,8,12b-tetrahydro-N-methyl-2H-dibenzo-[3,4:6,7]cyclohepta[1,2-b]furan-2 methanamine [(+)ditoluoyltartrate]”, the Appearance [2, 4] was “white”, the “HPLC Sum of impurities” value [2, 4] was 1.41 and the Appearance ([2]; 40° C./75% RH, 2 weeks) was “white”. For the same compound, the “HPLC Sum of impurities” value ([2]; 40° C./75% RH, 2 weeks) was 0.98, the Appearance ([2]; 40° C./75% RH, 4 weeks) was “white” and the “HPLC Sum of impurities” value ([2]; 40° C./75% RH, 4 weeks) was 1.00. For the same compound, the Appearance ([2]; 40° C./75% RH, 8 weeks) was “white”, the “HPLC Sum of impurities” value ([2]; 40° C./75% RH, 8 weeks) was 1.09 and the Appearance ([2]; 50° C., 2 weeks) was “white”. For the same compound, the “HPLC Sum of impurities” value ([2]; 50° C., 2 weeks) was 1.06, the Appearance ([2]; 50° C., 4 weeks) was “white” and the “HPLC Sum of impurities” value ([2]; 50° C., 4 weeks) was 1.22. The Appearance ([2]; 50° C., 8 weeks) was “white”, the “HPLC Sum of impurities” value ([2]; 50° C., 8 weeks) was 1.25 and the Appearance ([2]; Artificial light (2 weeks)) was “white”. For the same compound, the “HPLC Sum of impurities” value ([2]; Artificial light (2 weeks)) was 1.57, the Appearance ([2]; Daylight, 2 weeks) was “white” and the “HPLC Sum of impurities” value ([2]; Daylight, 2 weeks) was 1.26. The Appearance ([2]; Daylight, 4 weeks) was “white”, the “HPLC Sum of impurities” value ([2]; Daylight, 4 weeks) was 1.65 and the Appearance ([2]; Daylight, 8 weeks) was “white-yellow”. The “HPLC Sum of impurities” value ([2]; Daylight, 8 weeks) was 1.74, the Appearance ([2]; Reference (2 weeks)) was “white” and the “HPLC Sum of impurities” value ([2]; Reference (2 weeks)) was 1.01. For the same compound, the chemical stability [2, 5] was “shows a sensitivity towards temperature and light”, the “water adsorption/desorption behaviour (weight change as a function of relative humidity)” value [1, 5] was “less stable but the weight change as a function of the relative humidity is very small; also recorded: good adsorption desorption profile” and the Appearance ([3]; 0 days) was “white”. The “DSC Max” value ([3]; 0 days) was 173.7 °C, the “DSC ΔH” value ([3]; 0 days) was 71.9 J/g and the TGA <100° C. ([3]; 0 days) was 0.2%. The crystallographic stability [3, 5] was “crystallographic stable; also recorded: crystallographically stable”, the Appearance ([3]; two weeks, 25° C./60% RH) was “white” and the “DSC Max” value ([3]; two weeks, 25° C./60% RH) was 177.6 °C. The “DSC ΔH” value ([3]; two weeks, 25° C./60% RH) was 74.7 J/g, the IR ([3]; two weeks, 25° C./60% RH) was “~Ref” and the TGA <100° C. ([3]; two weeks, 25° C./60% RH) was 0.1%. For the same compound, the Appearance ([3]; two weeks, RT/75% RH) was “white”, the “DSC Max” value ([3]; two weeks, RT/75% RH) was 178.6 °C and the “DSC ΔH” value ([3]; two weeks, RT/75% RH) was 70.8 J/g. The IR ([3]; two weeks, RT/75% RH) was “~Ref”, the TGA <100° C. ([3]; two weeks, RT/75% RH) was 0.2% and the Appearance ([3]; two weeks, RT/<5% RH) was “white”. The “DSC Max” value ([3]; two weeks, RT/<5% RH) was 175.6 °C, the “DSC ΔH” value ([3]; two weeks, RT/<5% RH) was 78.7 J/g and the IR ([3]; two weeks, RT/<5% RH) was “~Ref”. For the same compound, the TGA <100° C. ([3]; two weeks, RT/<5% RH) was 0.3%.
With `CNCC1CC2c3ccccc3Cc3ccc(F)cc3C2O1.O=C(O)CC(=O)O` (single isomer, unassigned) [malonate salt, B-(2α,3aα,12bβ)-11-fluoro-3,3a,8,12b-tetrahydro-N-methyl-2H-dibenzo-[3,4:6,7]cyclohepta[1,2-b]furan-2 methanamine] the “water adsorption/desorption behaviour (weight change as a function of relative humidity)” value [1] was “less stable but the weight change as a function of the relative humidity is very small”.
